These are literature values, as cited in patent US8236331B2, “Cosmetic cooling composition” (Coty Deutschland GmbH, priority 2004, dated 2012).

The conditions of the series: WO 03/007909, no period of time specified.

As to `CCCCCCCCCCCCCCCC(=O)OC` [methyl palmitate], the “cooling effect as described” value was “long-lasting”.
